Assays:
[1] = Feeding study, food supplemented with C6 diesters of β-hydroxybutyrate; assay type: in vivo, C57BL/6 male mice; details: 10% w/w in diet, eighth night
Excerpt: Based on the results of the above Pilot studies, the C6 diesters of β-hydroxybutyrate were selected for a longer study with a greater number of mice to see if it would remain ketogenic even after food intake normalized. C6 diesters of β-hydroxybutyrate were synthesized as described above and purified for testing in mice. The C6 diesters of β-hydroxybutyrate were mixed at 10% w/w into ground standard chow diet (20% calories from protein), which was re-formed into pellets. Re-pelleted food was used to minimize any variable effects from a change in diet texture to ground.
The pelleted food was consumed by the mice after being placed in a glass jar in the animal cage. Four mice per diet were tested, with the mice individually caged. All mice were 12 month-old C57BL/6 males. Daily weight and caloric intake was monitored and blood was drawn for glucose and β-hydroxybutyrate levels on the eighth night. […] By the 7th night, the weights of the mice stabilized and 24 hour caloric intake was similar between the control diet and the mice that consumed food supplemented with C6 esters of β-hydroxybutyrate.

APPJ20 mice = test: EEG epileptiform spikes before and after intraperitoneal injection of C6-BHB; assay type: in vivo
Procedure: C6 and C8 esters of butanediol and C6 and C8 esters of β-hydroxybutyrate were synthesized as described above. The C6 ester of β-hydroxybutyrate was tested for efficacy in suppressing spikes in APPJ20 mice by intraperitoneal injection into 1-2 year-old APPJ20 mice including both male and female mice. The APPJ20 mice were described in Example 5.
(§1) EEGs were recorded from APPJ20 mice before and after intraperitoneal injection of C6-BHB, or an equivalent volume of saline. Following completion of the first 50 min recording, the injection was performed. Mice were then allowed to recover for 20 minutes in their home cage, followed by the second 50 min EEG recording. Blood was drawn immediately following completion of the second EEG session in order to measure plasma BHB levels (as described in Example 4). The lower of the two previously tested doses from Example 4 was injected, 50 μL per 30 g body weight, which is approximately 1.5 g/kg and approximately 0.2 millimoles.
(§2) During the EEG recordings, mice were freely moving in a transparent cylinder approximately the size of a home cage. Methodology for recording and analysis of EEGs and video tracking for movement was described in Example 5. Methodology for blood draws and plasma BHB measurement was described in Example 4.
The study used a cross-over design where all mice were injected with both C6-BHB and normal saline on different days, with at least 48 hours between injections. Data analysis was limited to mice that completed all injections and EEG recordings.

[2] = Pilot feeding study, food supplemented with esters of β-hydroxybutyrate and butanediol; assay type: in vivo, C57BL/6 male mice; details: 10% w/w in chow
Excerpt: Different esters of β-hydroxybutyrate and butanediol were synthesized as described above and purified for testing in mice. The esters of β-hydroxybutyrate and butanediol that were supplemented into the diet of the mice in this study were as follows: 1) C8 diesters of butanediol (C8x2-BD); 2) C8 monoesters of β-hydroxybutyrate (C8-BHB); 3) C6 diesters of β-hydroxybutyrate (C6x2-BHB); 4) C6 monoesters of β-hydroxybutyrate (C6-BHB); and 5) C6 diesters of butanediol (C6x2-BD). Food compositions supplemented with 1,3-butanediol were also tested. Compounds were mixed at 10% w/w in ground normal chow (20% calories from protein) to match standard vivarium feed. The food was provided in a glass jar inside the animal cage. n=2 mice/condition, 18 mice total. All mice were 12 month-old C57BL/6 males. Mice were placed in individual cages to record food intake more precisely. Food was switched back to normal chow at 72 hrs (ground and in a glass jar).

[3] = Pilot feeding study, food supplemented with C6 monoester of β-hydroxybutyrate; assay type: in vivo, C57BL/6 male mice
Procedure: C6 monoester of β-hydroxybutyrate was synthesized as described above and purified for testing in mice. The C6 monoester of β-hydroxybutyrate was mixed into ground control food (10% calories from protein), the same control diet used in the above examples involving ketogenic and control diet. The food was placed in a glass jar inside the animal cage at the start of the nighttime feeding cycle, 19:00 h. Different concentrations of the C6 monoester of β-hydroxybutyrate (w/w) were mixed into the control diet to determine which concentration was sufficient to raise BHB levels in the mice. n=4 mice/condition (2 mice per cage). All mice were 12 month-old C57BL/6 males.

[4] = Plasma BHB after intraperitoneal injection in APPJ20 mice; assay type: in vivo; details: approximately 70-80 minutes after i.p. injection; from a median of approximately 200 μM
Procedure: as §1, §2

[5] = Plasma BHB levels after intraperitoneal injection of C6 and C8 esters; assay type: in vivo, wild-type C57BL/6 male mice; details: for blood BHB levels: intraperitoneal injection, 50 uL and 100 uL (approx. 1-3 g/kg), blood up to 6 hours after injection
Procedure: C6 and C8 esters of butanediol and C6 and C8 esters of β-hydroxybutyrate were synthesized as described above and purified for testing in wild-type C57BL/6Ncrl male mice obtained from Charles River Laboratories. Mice were 8 months old at the time of the experiment. The biological function of C6 and C8 esters of butanediol and β-hydroxybutyrate was tested by intraperitoneal injection at two doses each, 50 uL and 100 uL. Injection was performed approximately 9 am (mice are maintained on 7a-7p light-dark cycle) and mice had access to food and water at all times. The molar quantity injected varied from 0.13-0.41 millimoles depending on the compound and dose. The subject mice weighed approximately 30 grams, so the quantity of compound injected ranged approximately from 1 g/kg to 3 g/kg. For comparison, these amounts could theoretically supply about 1/20 of a mouse's daily caloric needs—equivalent in humans to around 100 calories. Blood was drawn by distal tail nick just prior to injection (baseline) and at 30 min, 1 hour, 2 hours, 4 hours, and 6 hours after injection. Approximately 40 uL of blood was collected into lithium-heparin microvettes (Sarstedt CB-300LH) and subsequently centrifuged 15 min at 1500×G at 4° C. to separate plasma. Plasma BHB levels were determined by a colorimetric enzymatic assay (Stanbio Laboratory 2440-058).

CCCCCCOC(=O)C[C@@H](C)OC(=O)CCCCC [C6x2-BHB]
plasma β-hydroxybutyrate against targeted threshold [1]: ≥ 500 µM
β-hydroxybutyrate plasma concentrations versus control diet ([1]; normal caloric intake): greater β-hydroxybutyrate plasma concentrations

CCCCCC(=O)O[C@H](C)CC(=O)OCC [C6-BHB]
epileptiform spikes (APPJ20 mice; after i.p. 50 μL per 30 g body weight, saline 1.25 spikes/min): 0.82 spikes/min
reduction of epileptiform spikes compared to saline injection (APPJ20 mice; i.p. 50 μL per 30 g body weight (approx. 1.5 g/kg), 50 min EEG): approximately 35%
epileptiform spikes after injection (APPJ20 mice; i.p. injection, 50 min EEG): reduces spikes compared to both pre-injection baselines and injection of saline
spike reduction compared to after saline, at the individual mouse level (APPJ20 mice; i.p. injection, P<0.05): significant reductions for most mice
hypoglycaemias [2]: likely a result of the compound
BHB level in the blood ([3]; 2.5% or 5% by weight in food): slight increase in BHB level in the blood
BHB level in the blood against the targeted threshold ([3]; 2.5% or 5% by weight in food): ≤ 500
β-hydroxybutyrate concentration in blood ([3]; 10% or 20% by weight in food, probably explained by fasting): greater increase in β-hydroxybutyrate concentration
plasma BHB levels, median [4]: approximately 600 μM
side effect observed ([5]; higher dose (100 uL), intraperitoneal): mild sedation
blood BHB levels [5]: increased BHB levels to that seen on a ketogenic diet (0.5-2 mM), or after an overnight fast (1-3 mM)

CCCCCC(=O)OCC [C6, reference compound]
hypoglycaemias [2]: can be explained by fasting

CCCCCCCC(=O)O[C@H](C)CC(=O)OCC [C8-BHB]
hypoglycaemias [2]: can be explained by fasting
blood concentration of β-hydroxybutyrate ([2]; targeted 500 μM threshold): high BHB value
blood BHB levels [5]: increased BHB levels to that seen on a ketogenic diet (0.5-2 mM), or after an overnight fast (1-3 mM)

From US10562839B2, “Medium chain fatty acid esters of β-hydroxybutyrate and butanediol and compositions and methods for using same” (The J. David Gladstone Institutes, priority 2016, dated 2020)
